Results on ten compounds are retold here after ChEMBL document CHEMBL1153994.

The target in one test is Phospholipase D2 (Homo sapiens, UniProt O14939). In words: Inhibition of GFP-labeled PLD2 in human HEK293 cells. The format is cell-based.
A further test deals with T1, Phospholipase D1 (Homo sapiens, UniProt Q13393).
T1 sequence (Q13393 whole entry): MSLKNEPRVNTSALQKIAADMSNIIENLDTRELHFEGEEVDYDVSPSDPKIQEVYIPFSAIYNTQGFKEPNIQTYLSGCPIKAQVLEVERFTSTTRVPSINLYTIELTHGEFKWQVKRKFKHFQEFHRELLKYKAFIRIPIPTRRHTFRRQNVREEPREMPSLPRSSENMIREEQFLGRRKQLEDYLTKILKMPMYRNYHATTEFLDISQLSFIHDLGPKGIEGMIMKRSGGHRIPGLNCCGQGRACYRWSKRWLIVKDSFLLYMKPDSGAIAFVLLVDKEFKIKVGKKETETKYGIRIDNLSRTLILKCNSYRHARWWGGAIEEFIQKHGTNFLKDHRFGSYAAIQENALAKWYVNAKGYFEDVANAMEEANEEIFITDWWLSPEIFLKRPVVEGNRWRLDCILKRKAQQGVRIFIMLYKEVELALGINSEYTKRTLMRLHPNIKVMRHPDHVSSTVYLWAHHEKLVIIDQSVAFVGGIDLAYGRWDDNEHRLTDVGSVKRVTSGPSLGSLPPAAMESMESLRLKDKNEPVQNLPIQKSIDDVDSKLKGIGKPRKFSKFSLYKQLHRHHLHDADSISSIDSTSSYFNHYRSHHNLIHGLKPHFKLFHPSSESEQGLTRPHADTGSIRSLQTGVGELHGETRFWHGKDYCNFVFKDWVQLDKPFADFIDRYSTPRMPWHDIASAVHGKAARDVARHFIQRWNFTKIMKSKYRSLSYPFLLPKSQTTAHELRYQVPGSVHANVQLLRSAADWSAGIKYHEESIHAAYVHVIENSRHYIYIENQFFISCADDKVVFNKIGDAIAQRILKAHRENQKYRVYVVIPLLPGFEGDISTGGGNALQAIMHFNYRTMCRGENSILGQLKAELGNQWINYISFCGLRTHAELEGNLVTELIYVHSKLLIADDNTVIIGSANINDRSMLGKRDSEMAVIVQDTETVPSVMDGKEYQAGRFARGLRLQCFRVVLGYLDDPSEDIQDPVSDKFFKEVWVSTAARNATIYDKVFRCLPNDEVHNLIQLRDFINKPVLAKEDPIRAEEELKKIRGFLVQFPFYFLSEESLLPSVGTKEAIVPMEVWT
In words: Inhibition of PLD1 in human Calu1 cells. The format is cell-based, Calu-1.

A further test deals with HEK293. The test is described as follows: Selectivity for PLD1 in human Calu1 cells over GFP-labeled PLD2 in human HEK293 cells. The format is cell-based.

Each structure is given as a SMILES string. Where only a bound is given, the exact number is not on record here.

Phospholipase D2, sequence (O14939 whole entry): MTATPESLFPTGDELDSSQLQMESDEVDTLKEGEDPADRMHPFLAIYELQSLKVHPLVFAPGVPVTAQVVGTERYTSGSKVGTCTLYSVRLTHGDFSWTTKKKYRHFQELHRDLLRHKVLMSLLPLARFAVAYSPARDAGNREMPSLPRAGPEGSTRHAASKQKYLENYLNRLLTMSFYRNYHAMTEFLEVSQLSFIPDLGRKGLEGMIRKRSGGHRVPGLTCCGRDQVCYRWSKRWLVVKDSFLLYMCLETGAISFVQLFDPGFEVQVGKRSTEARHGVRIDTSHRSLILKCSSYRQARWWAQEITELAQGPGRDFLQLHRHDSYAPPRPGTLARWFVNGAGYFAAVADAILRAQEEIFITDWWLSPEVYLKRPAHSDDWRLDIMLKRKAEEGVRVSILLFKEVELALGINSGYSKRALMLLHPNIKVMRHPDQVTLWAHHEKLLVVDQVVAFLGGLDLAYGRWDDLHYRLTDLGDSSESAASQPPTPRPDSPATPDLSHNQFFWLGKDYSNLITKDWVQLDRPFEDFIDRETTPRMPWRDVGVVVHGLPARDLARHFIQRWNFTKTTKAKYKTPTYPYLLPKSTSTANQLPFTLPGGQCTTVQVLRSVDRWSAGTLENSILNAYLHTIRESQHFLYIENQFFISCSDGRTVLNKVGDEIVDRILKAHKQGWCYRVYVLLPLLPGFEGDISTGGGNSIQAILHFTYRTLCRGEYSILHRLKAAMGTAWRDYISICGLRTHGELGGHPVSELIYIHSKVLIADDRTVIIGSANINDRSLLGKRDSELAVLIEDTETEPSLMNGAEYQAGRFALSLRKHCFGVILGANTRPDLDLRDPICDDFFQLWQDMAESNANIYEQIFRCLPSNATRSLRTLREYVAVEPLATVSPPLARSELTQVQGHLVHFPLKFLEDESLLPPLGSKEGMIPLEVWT

For the compound `Cc1cccc(C(=O)N[C@@H](C)CN2CCC3(CC2)C(=O)NCN3c2ccccc2)c1`, the IC50 was found to be 27000 nM on Phospholipase D2 and 3400 nM against Phospholipase D1.

Compound `O=C(NCCN1CCC2(CC1)C(=O)NCN2c1ccccc1)c1ccc2ccccc2c1` had a fold change (FC) with HEK293 of 9. Turning to `COc1cc(C(=O)NCCN2CCC3(CC2)C(=O)NCN3c2ccccc2)ccc1N`, the results for the IC50 against Phospholipase D2 and against Phospholipase D1 were 550 nM and 5900 nM, respectively. Consider `O=C(NCCN1CCC2(CC1)C(=O)NCN2c1ccccc1)[C@H]1C[C@@H]1c1ccccc1` (relative stereo), for which the IC50 against Phospholipase D2 and at Phospholipase D1 was > 20000 nM throughout. With `O=C(NCCN1CCC2(CC1)C(=O)NCN2c1ccccc1)c1cc2ccccc2s1`, the 50% inhibitory concentration (IC50) turned out to be 30 nM at Phospholipase D2 and 150 nM at Phospholipase D1. As for `C[C@@H](CN1CCC2(CC1)C(=O)NCN2c1ccccc1)NC(=O)c1ccc(F)c(F)c1`, the figures for the IC50 on Phospholipase D2 and at Phospholipase D1 were 200 nM and 150 nM, respectively. With `O=C(NCCN1CCC(n2c(=O)[nH]c3ccccc32)CC1)c1ccc2ccccc2c1`, the fold change (FC) in the test with HEK293 was > 1700. On to `O=C(NCCN1CCC2(CC1)C(=O)NCN2c1ccccc1)c1cnc2ccccc2n1`, for which the IC50 against Phospholipase D2 and at Phospholipase D1 was > 20000 nM throughout.

As to `C[C@@H](CN1CCC2(CC1)C(=O)NCN2c1ccccc1)NC(=O)[C@H]1C[C@@H]1c1ccccc1`, the concentration for half-maximal inhibition (IC50) at Phospholipase D2 was 30000 nM; on Phospholipase D1 it was 2600 nM. Taken in the same sequence, the figures for `O=C(C#Cc1ccccc1)NCCN1CCC2(CC1)C(=O)NCN2c1ccccc1` were 1600 nM and 2100 nM.
